For 9 molecules, IC50 and Ki results are on record in US8232273B2, “Heterocyclic compounds and methods of use” (Genentech, Inc., priority 2008, dated 2012).

Assay [1] deals with T1, Bcl-xL (GST-Bcl-xL) (Homo sapiens, UniProt Q07817). The assay can be described thus: AlphaScreen Bcl-xL binding assay, competition with biotinylated Bim peptide. Further details: made in house. The note with it: values listed in the order of Table 1; read-out: Alphascreen results (IC50) against the Bcl-xL protein. The source says:
The measurement of competition of compounds of the invention with Bim26-mer for a Bcl-2 family protein binding site using an Alpha Screen Bcl-xL binding assay:
The BH3 proteins AlphaScreen™ assay was used to identify active small molecules Bcl-2 family protein screen, e.g., Bcl-xL, hmMcl-1 screen.
The beads come in close proximity when the protein and the peptides interact. Donor beads contain a photosensitiser that converts oxygen to an excited form of O2 at an excitation of 680 nm. Energy is transformed from the singlet oxygen and reacts with chemiluminescers on the acceptor bead, resulting in light emission at 520-620 nm. […] With this information, the IC50 of each compound was calculated
GST-Bcl-xL, GST-hmMcl-1 and biotinylated GST proteins were prepared in-house and were stored as stock solutions at −80° C. The biotinylated-Bak, and biotinylated-Bim peptides were purchased from Auspep and were stored as 500 μM stock solutions in 100% DMSO at −80° C. […] DMSO was purchased from AnalaR.
Compounds of the invention were prepared as 10 mM stocks with 100% DMSO on the day prior to performing the assay. […] To achieve a final compound concentration of 1 μM, in a separate matrical plate, 28 μL of 100% DMSO and 2 μL of 10 mM compound was added to a well, mixed well, 2 μL of this solution was taken and added to 38 μL of 100% DMSO. 20 μL of this solution was added to the test matrical plate. Several control compounds were included in the test plates. For the control wells 15 μL 100% DMSO only was added to the appropriate wells of each plate. The compound plates were then serially diluted 2 fold using the MiniTrak. Once titrations were complete, the compound plate was immediately covered with a foil seal to prevent evaporation.
The assay and bead buffers were prepared fresh. Each titrated compound plate was assayed in duplicate. The following volumes were sufficient to run 12 Proxiplates (4 assay plates run in duplicate in each of Bclxl, hmMcl and counter assays)
Protein and Peptide Preparation; and Assay Performance • 1. The assay and bead buffers were used to prepare the acceptor and donor solutions. ALPHASCREEN™ beads are light sensitive and therefore prepared in a darkened room. 2.5 μL of beads were added per 1 mL of buffer. • 2. The volume of protein or peptide to add was calculated using the following formula:
V2=Volume of stock protein/Peptide to add to Acceptor/Donor solution • 3. The assay components were prepared as separate Acceptor and Donor Solutions. The Acceptor Solution contained Acceptor beads and target protein, while the Donor Solution contained Donor beads and biotinylated peptide.
• 4. After the solutions were prepared, they were left to incubate for 30 minutes at room temperature to allow the beads to bind to the protein and the peptide. • 5. 50 μL of Bcl-xL solution, 50 μL of hmMcl-1 solution and 50 μL of biotinylated-GST were added into separate deep wells on an assay plate. A control 50 μL Assay/Bead buffer was added separate well plates (no protein). • 6. 50 μL of Bim solution and 50 μL of Bak solution were added into separate deep well plates. • 7. Transfer 0.3 μL it of sample from the compound plate into each assay plate. • 8. Incubated for 30 mins at RT, then add 5 μL of the Donor solution. After addition of the Donor solution, tapped plates gently and sealed individually with adhesive film. • 9.
The percent inhibition was calculated using the following equation:
[formula] • x=RFU obtained after compound treatment • μ^−=RFU obtained for the negative controls (no protein controls) • μ^+=RFU obtained for the positive controls (DMSO vehicle controls)
(In general: Alpha assays give light when donor and acceptor beads are brought close together.)

The target of assay [2] is T1, Bcl-xL (GST-Bcl-xL). The assay can be described thus: TR-FRET binding assay, competition with F-Bak for the Bcl-xL binding site. The settings on record: values listed in the order of Table 1, read-out: TR-FRET assay results (Ki), Bcl-xL. (In general: TR-FRET usually uses a lanthanide donor and a delayed reading to cut background.)

Molecules are shown by their SMILES.

A word on the IC50: it is the point on the concentration scale where inhibition reaches its midpoint. In general, Ki refers to the dissociation constant of the complex between target and ligand, obtained from inhibition or displacement.

T1 sequence (Q07817 whole entry, species assumed): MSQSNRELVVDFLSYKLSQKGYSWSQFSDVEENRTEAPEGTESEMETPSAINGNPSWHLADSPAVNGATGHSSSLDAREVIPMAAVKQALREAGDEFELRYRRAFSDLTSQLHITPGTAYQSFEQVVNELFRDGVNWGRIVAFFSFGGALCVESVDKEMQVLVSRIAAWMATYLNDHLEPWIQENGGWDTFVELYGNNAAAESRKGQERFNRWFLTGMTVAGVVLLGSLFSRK

As to `O=C(Nc1nc2ccccc2s1)c1cccc2c1CN(c1nc(C(=O)O)c(C#CCO)s1)CC2` [Example 14, 2-(8-(Benzo[d]thiazol-2-ylcarbamoyl)-3,4-dihydroisoquinolin-2(1H)-yl)-5-(3-hydroxyprop-1-ynyl)thiazole-4-carboxylic acid], the IC50 on Bcl-xL (GST-Bcl-xL) [1] worked out at 20 nM. Also, the Ki on Bcl-xL (GST-Bcl-xL) [2] turned out to be 6 nM.
Turning to `O=C(Nc1nc2ccccc2s1)c1cccc2c1CN(c1nc(C(=O)O)c(CCCn3cnc4ccccc43)s1)CC2` [Example 15, 5-(3-(1H-benzo[d]imidazol-1-yl)propyl)-2-(8-(benzo[d]thiazol-2-ylcarbamoyl)-3,4-dihydroisoquinolin-2(1H)-yl)thiazole-4-carboxylic acid], at Bcl-xL (GST-Bcl-xL) [1], the IC50 worked out at 10 nM. Besides, the Ki on Bcl-xL (GST-Bcl-xL) [2] is 3 nM.
On the same counts, the results for `O=C(Nc1nc2ccccc2s1)c1cccc2c1CN(c1nc(C(=O)O)c(CCCn3ccnc3)s1)CC2` [Example 16, 5-(3-(1H-imidazol-1-yl)propyl)-2-(8-(benzo[d]thiazol-2-ylcarbamoyl)-3,4-dihydroisoquinolin-2(1H)-yl)thiazole-4-carboxylic acid] are 10 nM and 6 nM.
The corresponding values for `O=C(Nc1nc2ccccc2s1)c1cccc2c1CN(c1nc(C(=O)O)c(CCCn3ccc4cccnc43)s1)CC2` [Example 17, 5-(3-(1H-pyrrolo[2,3-b]pyridin-1-yl)propyl)-2-(8-(benzo[d]thiazol-2-ylcarbamoyl)-3,4-dihydroisoquinolin-2(1H)-yl)thiazole-4-carboxylic acid] are 20 nM and 4 nM.
Consider `O=C(Nc1nc2ccccc2s1)c1cccc2c1CN(c1nc(C(=O)O)c(CCCN3CCCC3)s1)CC2` [Example 18, 2-(8-(benzo[d]thiazol-2-ylcarbamoyl)-3,4-dihydroisoquinolin-2(1H)-yl)-5-(3-(pyrrolidin-1-yl)propyl)thiazole-4-carboxylic acid], for which the IC50 on Bcl-xL (GST-Bcl-xL) [1] came out at 6 nM. Besides, the Ki at Bcl-xL (GST-Bcl-xL) [2] was 4 nM.
The corresponding values for `O=C(Nc1nc2ccccc2s1)c1cccc2c1CN(c1nc(C(=O)O)c(CCCN3CCCCC3)s1)CC2` [Example 20, 2-(8-(benzo[d]thiazol-2-ylcarbamoyl)-3,4-dihydroisoquinolin-2(1H)-yl)-5-(3-(piperidin-1-yl)propyl)thiazole-4-carboxylic acid] are 8 nM and 3 nM.
On the same counts, the results for `O=C(Nc1nc2ccccc2s1)c1cccc2c1CN(c1nc(C(=O)O)c(CCCOc3ccc(-n4ncc5cncnc54)cc3)s1)CC2` [Example 21, 5-(3-(4-(1H-pyrazolo[3,4-d]pyrimidin-1-yl)phenoxy)propyl)-2-(8-(benzo[d]thiazol-2-ylcarbamoyl)-3,4-dihydroisoquinolin-2(1H)-yl)thiazole-4-carboxylic acid] are 0.3 nM and 0.05 nM.
On the same counts, the results for `CC1(C)[C@H]2CC[C@]1(C)C(Oc1ccccc1OCCCc1sc(N3CCc4cccc(C(=O)Nc5nc6ccccc6s5)c4C3)nc1C(=O)O)C2` (stereo partly drawn) [Example 22, 2-(8-(benzo[d]thiazol-2-ylcarbamoyl)-3,4-dihydroisoquinolin-2(1H)-yl)-5-(3-(2-((1S,4S)-1,7,7-trimethylbicyclo[2.2.1]heptan-2-yloxy)phenoxy)propyl)thiazole-4-carboxylic acid] are 50 nM and 19 nM.
As for `O=C(Nc1nc2ccccc2s1)c1cccc2c1CN(c1nc(C(=O)O)c(CCCOc3ccc4nc(N5CCN(c6ccccn6)CC5)sc4c3)s1)CC2` [Example 23, 2-(8-(benzo[d]thiazol-2-ylcarbamoyl)-3,4-dihydroisoquinolin-2(1H)-yl)-5-(3-(2-(4-(pyridin-2-yl)piperazin-1-yl)benzo[d]thiazol-6-yloxy)propyl)thiazole-4-carboxylic acid], the IC50 at Bcl-xL (GST-Bcl-xL) [1] was found to be 1 nM. Further, the Ki on Bcl-xL (GST-Bcl-xL) [2] was found to be 2 nM.
